Reference: patent US20250332143A1, “COMPOSITION COMPRISING ALOX5 INHIBITOR FOR PREVENTING OR TREATING SARCOPENIA” (PLUTO Inc., priority 2022, published 2025)

How the values were obtained:
[1] = system: Dex-treated C2C12 myotubes; experiment: SUNSET assay of protein synthesis in Dex-treated myotubes; format: cell-based, mouse
Procedure: (§1) C2C12 murine skeletal muscle myoblasts were obtained from Koram Biotech (Republic of Korea). The cells were maintained in DMEM growth medium supplemented with 10% FBS, 1% penicillin, and streptomycin. When myoblasts proliferated to approximately 90%, they were differentiated into muscle fibers by treating them with DMEM differentiation medium supplemented with 2% HS, 1% penicillin, and streptomycin for 96 hours. Differentiated muscle fibers were treated with 10 μM Dex for 24 hours to induce sarcopenia. To evaluate the degree of differentiation of muscle cells, differentiating myoblasts were treated with the corresponding compound in differentiation medium for 24 or 48 hours. The concentration of intracellular protein was measured using the Bradford assay (Bio-Rad, USA, CA), and electrophoresis was performed by loading on 10% and 12% polyacrylamide gels. Afterwards, the separated proteins were transferred to a PVDF membrane, and the primary antibody used was diluted 1:1000 in TBS-T containing 5% skim milk and incubated overnight at 4° C. Secondary antibodies were diluted 1:2000 and incubated for 35 minutes at room temperature (RT). Band intensity was measured using ImageJ 1.52 software (National Institutes of Health, USA), and intracellular protein was normalized to α-tubulin.

[2] = system: Dex-treated C57BL/6J mice; experiment: Dexamethasone-induced sarcopenia mouse model; format: in vivo
Procedure: (§2) For quantitative real-time PCR, transcript levels of genes of interest were analyzed using the StepOnePlus real-time PCR system (Applied Biosystems, UK). Total RNA was reverse transcribed to prepare cDNA using AccuPower® RT PreMix (Bioneer Corporation). The obtained cDNA was subjected to real-time PCR according to the manufacturer's instructions with the following changes. PCR was performed in triplicate in a total volume of 20 μL 2× Power SYBR Green PCR Master Mix (Enzynomics, Republic of Korea) containing 200 nM (final concentration) of each specific primer and 1 μL of cDNA synthesized from 1 μg of total RNA. PCR amplification consisted of incubating the mixture at 95° C. for 10 minutes, followed by 40 cycles of denaturation, annealing, and extension. Denaturation was performed at 95° C. for 15 s, annealing was performed at 60° C. for 1 min, and extension was performed at 72° C. for 20 s with fluorescence detection at 72° C. after each cycle. After the final cycle, melting point analysis of all samples was performed within the range of 60 to 95° C. using continuous fluorescence detection. Specific cDNA samples were included in each run and used as reference material for comparison between runs. The expression level of GAPDH was used to calculate and normalize the expression levels of all other genes. Results were expressed as relative expression levels for each gene. The synthesized cDNA was amplified by quantitative real-time PCR (qRT-PCR) or standard PCR.
An LTB4 ELISA kit was purchased from MyBioSource (CA, USA). The concentrations of LTB4 in skeletal muscles and cell lysates were measured by the enzyme-linked […] method according to the manufacturer's instructions. Samples (100 μL) were maintained at room temperature (RT) for 1 hour in 96 wells with polyclonal LTB4 antibody. Afterwards, an enzymatic reaction was performed to stop the process, and the absorbance was measured at 405 nm.
8. Dexamethasone-Induced Sarcopenia Mouse Model 12-week-old male C57BL/6J mice were divided into 3 groups of 5 each and treated with drugs as follows: 1) PBS with 5% DMSO and 5% Tween 80 (Vehicle group); 2) 15 mg/kg of Dexamethasone (at a concentration of 15 mg/kg, in PBS containing 5% DMSO and 5% Tween 80) (Dexamethasone group); and 3) 10 mg/kg of malotilate (at a concentration of 10 mg/kg, in PBS containing 15 mg/kg Dexamethasone, 5% DMSO, and 5% Tween 80) (Malotilate group). Those were injected intraperitoneally (solution volume=200 μL) for 2 weeks. Afterwards, the muscle function and conditions of the mice were analyzed.
Grip strength was measured with the BIO-GS3 grip strength test meter (Bioseb, FL, USA). Grip strength was measured by placing the mouse on a grid and gently pulling it back with all four paws until the mouse fell off the grid. The trials were conducted with a time interval of 30 seconds, and the largest value among the three trials was selected as the representative muscle strength.
Muscle fatigue was measured from two different models using Rotarod (Ugo Basile, Italy). One is a constant speed model that measures how long movement can be continued on a cylinder rotating at a constant speed, and the other model is an acceleration model that measures how fast the mouse can continue movement when the speed of the cylinder increases at regular intervals. Mice were trained to adapt from 5 rpm to 15 rpm one day before measurement in the above two models.
Before sacrifice, mice were anesthetized by intraperitoneally administering 22 mg/kg Ketamine (Yuhan, Republic of Korea) and 10 mg/kg xylazine (Bayer, Republic of Korea) by IP injection, and then samples were collected. Quadriceps, gastrocnemius, tibialis anterior and soleus muscles were sampled and their weights were measured. The muscles sampled for immunohistostaining were cultured overnight at 4° C. with 4% paraformaldehyde, fixed, embedded in paraffin solution, and stored at −80° C. […]

atrogin-1 and MuRF-1 = experiment: qPCR of atrogin-1 and MuRF-1 in human myotubes; format: cell-based
Procedure: as §2, with “PCR amplification consisted of incubating the mixture at 95° C. for 10 minutes, followed by 40 cycles of denaturation, annealing, and extension.” left out, “Specific cDNA samples were included in each run and used as reference material for comparison between runs. The expression level of GAPDH was used to calculate and normalize the expression levels of all other genes.” left out
Human-derived myoblasts were purchased from Thermo-Fisher Scientific (USA). […] Myotubes were stained with H&E. After light microscopy analysis of DIC captured images (Olympus CKX41), myotubes were measured using ImageJ 1.48 software (National Institutes of Health, USA).

FoxO3a = experiment: Western blot of FoxO3a phosphorylation and Atrogin-1 in Dex-treated myotubes; format: cell-based, mouse
Procedure: as §1

[3] = Dex-treated mice, 10 mg/kg intraperitoneally, 2 weeks
[4] = Dex-treated mice, quadriceps, mRNA

CC(C)OC(=O)C(C(=O)OC(C)C)=C1SC=CS1 [malotilate, Malotilate]
total protein synthesis [1]: restored | grip strength [2, 3]: significantly increased | latency to fall, rotarod [2, 3]: significantly increased | maximum velocity, rotarod [2, 3]: significantly increased | quadriceps muscle mass [2, 3]: increased | soleus muscle mass [2, 3]: increased | LTB4 level in muscle (ELISA) ([2]; Dex-treated mice, quadriceps): lowered | average muscle fiber cross sectional area (CSA) ([2]; Dex-treated mice, quadriceps): increased | proportion of fibers with larger CSA ([2]; Dex-treated mice, quadriceps): increased | MuRF-1 expression in muscle [2, 4]: reduced | atrogin-1 expression in muscle [2, 4]: reduced | skeletal muscle atrophy ([2]; animal model of sarcopenia due to Dex treatment): inhibited | MuRF-1 expression (atrogin-1 and MuRF-1): significantly reduced | atrogin-1 expression (atrogin-1 and MuRF-1): significantly reduced | Atrogin-1 expression (Western blot) (FoxO3a): decrease | FoxO3a phosphorylation levels (FoxO3a; Western blot): increased
